Data reported in ChEMBL document CHEMBL4177636, “Design, synthesis, and biological evaluation of pyrrolobenzodiazepine-containing hypoxia-activated prodrugs” (Bioorg Med Chem Lett, 2017).
pIC50: −log10 of the molar value.

Columns and labels:
NCI-H460 [1] = assay: Cytotoxicity against human NCI-H460 cells after 24 hrs under normoxic condition by luminescence-based Cell-Titer Glo assay; settings: NCI-H460, 24 h
[2] = Selectivity index, ratio of prodrug IC50 under normoxic condition to prodrug IC50 under hypoxic condition; type: functional
NCI-H460 [3] = assay: Cytotoxicity against human NCI-H460 cells after 24 hrs under hypoxic condition by luminescence-based Cell-Titer Glo assay; type: functional; settings: NCI-H460, 24 h
[4] = Induction of DNA (unknown origin) alkylation assessed as amount remaining of unalkylated test oligonucleotides after 18 hrs by LC/MS/UV analysis; parameters: concentration or dose not given beside the values
[5] = (§1) Prodrug activation assessed as recombinant human cytochrome P450-reductase-mediated drug metabolism by measuring (11aS,11a'S)-8,8'-(pentane-1,5-diylbis(oxy))bis(7-methoxy-2-methylene-2,3-dihydro-1H-benzo[e]pyrrolo[1,2-a][1,4]diazepin-5(11aH)-one) level under normoxic condition after 2 hrs by LC-MS analysis; type: ADME; settings: recombinant enzyme
[6] = as §1, with “hypoxic” for “normoxic”; type: ADME; settings: recombinant enzyme
[7] = Prodrug activation assessed as recombinant human cytochrome P450-reductase-mediated drug metabolism by measuring (S)-7,8-dimethoxy-2-methylene-2,3-dihydro-1H-benzo[e]pyrrolo[1,2-a][1,4]diazepin-5(11aH)-one level under normoxic condition after 2 hrs by LC-MS analysis; type: ADME; settings: recombinant enzyme
[8] = Prodrug activation assessed as recombinant human cytochrome P450-reductase-mediated drug metabolism by measuring (S)-7,8-dimethoxy-2-methylene-2,3-dihydro-1H-benzo[e]pyrrolo[1,2-a][1,4]diazepin-5(11aH)-one level under hypoxic condition after 2 hrs by LC-MS analysis; type: ADME; settings: recombinant enzyme
[9] = Prodrug activation assessed as recombinant human cytochrome P450-reductase-mediated drug metabolism by measuring (S)-7,8-dimethoxy-2-(quinolin-6-yl)-1H-benzo[e]pyrrolo[1,2-a][1,4]diazepin-5(11aH)-one level under normoxic condition after 2 hrs by LC-MS analysis; type: ADME; settings: recombinant enzyme
[10] = Prodrug activation assessed as recombinant human cytochrome P450-reductase-mediated drug metabolism by measuring (S)-7,8-dimethoxy-2-(quinolin-6-yl)-1H-benzo[e]pyrrolo[1,2-a][1,4]diazepin-5(11aH)-one level under hypoxic condition after 2 hrs by LC-MS analysis; type: ADME; settings: recombinant enzyme

Row | Structure (SMILES) | pIC50 (NCI-H460 [1]) | Ratio IC50 [2] | pIC50 (NCI-H460 [3]) | Activity [4] [%] | Drug metabolism [5] [%] | Drug metabolism [6] [%] | Drug metabolism [7] [%] | Drug metabolism [8] [%] | Drug metabolism [9] [%] | Drug metabolism [10] [%]
1 | Cn1c(COP(=O)(NCCBr)NCCBr)cnc1[N+](=O)[O-] [EVOFOSFAMIDE] | 5.18 | 715 | 8.03 | – | – | – | – | – | – | –
2 | C=C1C[C@H]2C=Nc3cc(OCCCCCOc4cc5c(cc4OC)C(=O)N4CC(=C)C[C@H]4C(O)N5C(=O)OCc4cnc([N+](=O)[O-])n4C)c(OC)cc3C(=O)N2C1 (some centres not stated) | 8.85 | 1.3 | 8.96 | 92 | 0 | 0 | – | – | – | –
3 | COc1cc2c(cc1OC)C(=O)N1C=C(c3ccc4ncccc4c3)C[C@H]1C=N2 | 9.11 | 1.4 | 9.27 | 78 | – | – | – | – | – | –
4 | C=C1C[C@H]2C=Nc3cc(OCCCCCOc4cc5c(cc4OC)C(=O)N4CC(=C)C[C@H]4C=N5)c(OC)cc3C(=O)N2C1 | 10.04 | 1.5 | 10.21 | 42 | – | – | – | – | – | –
5 | C=C1C[C@H]2C(O)N(C(=O)OCc3cncn3C)c3cc(OC)c(OC)cc3C(=O)N2C1 (some centres not stated) | – | – | – | – | – | – | 0 | 0 | – | –
6 | C=C1C[C@H]2C=Nc3cc(OC)c(OC)cc3C(=O)N2C1 | 6.26 | 2 | 6.56 | 84 | – | – | – | – | – | –
7 | COc1cc2c(cc1OC)N(C(=O)OCc1cnc([N+](=O)[O-])n1C)C(O)[C@@H]1CC(c3ccc4ncccc4c3)=CN1C2=O (some centres not stated) | 6.63 | 13.6 | 7.77 | 100 | – | – | – | – | 5 | 92
8 | C=C1C[C@H]2C(O)N(C(=O)OCc3cnc([N+](=O)[O-])n3C)c3cc(OC)c(OC)cc3C(=O)N2C1 (some centres not stated) | 3.71 | 5.6 | 4.46 | 100 | – | – | 2 | 100 | – | –
9 | C=C1C[C@H]2C=Nc3cc(OCCCCCOc4cc5c(cc4OC)C(=O)N4CC(=C)C[C@H]4C(O)N5C(=O)OCc4cncn4C)c(OC)cc3C(=O)N2C1 (some centres not stated) | – | – | – | – | 0 | 0 | – | – | – | –
